Laboratory results from ChEMBL document CHEMBL4765252, “Design, synthesis, and biological evaluation of novel 4H-chromen-4-one derivatives as antituberculosis agents against multidrug-resistant tuberculosis” (Eur J Med Chem, 2020).
Values after ≈ are worked out from the molar mass of the structure shown.

Key:
Type in all cases: functional
[1] = tested on: Mycobacterium tuberculosis; assay: Antitubercular activity against isoniazid, rifampicin, fluoroquinolones-resistant Mycobacterium tuberculosis assessed as inhibition of bacterial growth incubated for 6 days by MABA assay; settings: 144 h, time 6 day
[2] = tested on: Mycobacterium tuberculosis; assay: Antitubercular activity against INH, SM, RFP, EMB, PAS, Prothionamide 1321, Capreomycin-resistant Mycobacterium tuberculosis 14862 assessed as inhibition of bacterial growth
[3] = tested on: Mycobacterium tuberculosis; assay: Antitubercular activity against INH, SM, RFP, EMB, RBT, PAS, OLFX-resistant Mycobacterium tuberculosis 13946 assessed as inhibition of bacterial growth

Row | Compound | MIC [1] [µM] | MIC [2] [µg/mL] | MIC [3] [µg/mL]
1 | CCOC(=O)c1c(NC(=O)c2c(F)c(F)c(F)c(F)c2F)sc2c1CCN(CC)C2 | 0.2 (≈ 0.0897 µg/mL) |  | 
2 | O=c1cc(-c2ccc(O)cc2)oc2ccc(O)c(CN3CCCC3)c12 |  | 3.82 (≈ 11.3 µM) | 3.81 (≈ 11.3 µM)
3 | O=c1cc(-c2ccc(O)cc2)oc2ccc(O)c(CN3CCC3)c12 |  | 1.64 (≈ 5.08 µM) | 1.76 (≈ 5.43 µM)
4 | NNC(=O)c1ccncc1 [ISONIAZID] |  | > 10 | 2.38 (≈ 17.3 µM)
5 | CO[C@H]1/C=C/O[C@@]2(C)Oc3c(C)c(O)c4c(O)c(c(/C=N/N5CCN(C)CC5)c(O)c4c3C2=O)NC(=O)/C(C)=C\C=C\[C@H](C)[C@H](O)[C@@H](C)[C@@H](O)[C@@H](C)[C@H](OC(C)=O)[C@@H]1C [RIFAMPIN] |  | > 10 | > 10
